Source: US9290777B2, “Putative cytokinin receptor and methods for use thereof” (NATIONAL UNIVERSITY OF SINGAPORE, priority 2007, dated 2016)

System: ARR5
Assay: qRT-PCR of cytokinin responsive gene after BA pulse, fold change vs untreated wild type
Format: cell-based, Arabidopsis thaliana

SMILES: c1ccc(CNc2ncnc3nc[nH]c23)cc1 [benzyladenine]
- ARR5 fold change (BA 0.01 μM, 5 min, AS1, ↑ up): 4.33↑
- ARR5 fold change (BA 0.01 μM, 5 min, AS8, ↑ up): 6.12↑
- ARR5 fold change (BA 0.01 μM, 5 min, AS21, ↑ up): 8.2↑
- ARR5 fold change (BA 0.01 μM, 5 min, OE1, ↓ down): 4.51↓
- ARR5 fold change (BA 0.01 μM, 5 min, OE12, ↓ down): 5.87↓
- ARR5 fold change (BA 0.01 μM, 5 min, OE18, ↓ down): 7.33↓
- ARR5 fold change (BA 0.01 μM, 5 min, Wild type, ↑ up): 3.55↑
- ARR5 fold change (BA 0.01 μM, 15 min, AS1, ↑ up): 4.77↑
- ARR5 fold change (BA 0.01 μM, 15 min, AS8, ↑ up): 6.68↑
- ARR5 fold change (BA 0.01 μM, 15 min, AS21, ↑ up): 8.58↑
- ARR5 fold change (BA 0.01 μM, 15 min, OE1, ↓ down): 4.33↓
- ARR5 fold change (BA 0.01 μM, 15 min, OE12, ↓ down): 5.55↓
- ARR5 fold change (BA 0.01 μM, 15 min, OE18, ↓ down): 7.03↓
- ARR5 fold change (BA 0.01 μM, 15 min, Wild type, ↑ up): 3.64↑
- ARR5 fold change (BA 0.01 μM, 30 min, AS1, ↑ up): 5.01↑
- ARR5 fold change (BA 0.01 μM, 30 min, AS8, ↑ up): 6.82↑
- ARR5 fold change (BA 0.01 μM, 30 min, AS21, ↑ up): 8.79↑
- ARR5 fold change (BA 0.01 μM, 30 min, OE1, ↓ down): 4.11↓
- ARR5 fold change (BA 0.01 μM, 30 min, OE12, ↓ down): 5.21↓
- ARR5 fold change (BA 0.01 μM, 30 min, OE18, ↓ down): 6.91↓
- ARR5 fold change (BA 0.01 μM, 30 min, Wild type, ↑ up): 4.11↑
- ARR5 fold change (BA 0.01 μM, 1 h, AS1, ↑ up): 5.11↑
- ARR5 fold change (BA 0.01 μM, 1 h, AS8, ↑ up): 7.16↑
- ARR5 fold change (BA 0.01 μM, 1 h, AS21, ↑ up): 9.15↑
- ARR5 fold change (BA 0.01 μM, 1 h, OE1, ↓ down): 3.91↓
- ARR5 fold change (BA 0.01 μM, 1 h, OE12, ↓ down): 4.96↓
- ARR5 fold change (BA 0.01 μM, 1 h, OE18, ↓ down): 6.63↓
- ARR5 fold change (BA 0.01 μM, 1 h, Wild type, ↑ up): 4.3↑
- ARR5 fold change (BA 0.1 μM, 5 min, AS1, ↑ up): 5.34↑
- ARR5 fold change (BA 0.1 μM, 5 min, AS8, ↑ up): 7.32↑
- ARR5 fold change (BA 0.1 μM, 5 min, AS21, ↑ up): 9.31↑
- ARR5 fold change (BA 0.1 μM, 5 min, OE1, ↓ down): 4.1↓
- ARR5 fold change (BA 0.1 μM, 5 min, OE12, ↓ down): 4.71↓
- ARR5 fold change (BA 0.1 μM, 5 min, OE18, ↓ down): 6.69↓
- ARR5 fold change (BA 0.1 μM, 5 min, Wild type, ↑ up): 4.66↑
- ARR5 fold change (BA 0.1 μM, 15 min, AS1, ↑ up): 5.59↑
- ARR5 fold change (BA 0.1 μM, 15 min, AS8, ↑ up): 7.49↑
- ARR5 fold change (BA 0.1 μM, 15 min, AS21, ↑ up): 9.46↑
- ARR5 fold change (BA 0.1 μM, 15 min, OE1, ↓ down): 4.04↓
- ARR5 fold change (BA 0.1 μM, 15 min, OE12, ↓ down): 4.63↓
- ARR5 fold change (BA 0.1 μM, 15 min, OE18, ↓ down): 6.51↓
- ARR5 fold change (BA 0.1 μM, 15 min, Wild type, ↑ up): 4.78↑
- ARR5 fold change (BA 0.1 μM, 30 min, AS1, ↑ up): 5.89↑
- ARR5 fold change (BA 0.1 μM, 30 min, AS8, ↑ up): 7.73↑
- ARR5 fold change (BA 0.1 μM, 30 min, AS21, ↑ up): 9.68↑
- ARR5 fold change (BA 0.1 μM, 30 min, OE1, ↓ down): 3.9↓
- ARR5 fold change (BA 0.1 μM, 30 min, OE12, ↓ down): 4.4↓
- ARR5 fold change (BA 0.1 μM, 30 min, OE18, ↓ down): 6.23↓
- ARR5 fold change (BA 0.1 μM, 30 min, Wild type, ↑ up): 4.95↑
- ARR5 fold change (BA 0.1 μM, 1 h, AS1, ↑ up): 6.07↑
- ARR5 fold change (BA 0.1 μM, 1 h, AS8, ↑ up): 8.04↑
- ARR5 fold change (BA 0.1 μM, 1 h, AS21, ↑ up): 9.97↑
- ARR5 fold change (BA 0.1 μM, 1 h, OE1, ↓ down): 3.67↓
- ARR5 fold change (BA 0.1 μM, 1 h, OE12, ↓ down): 4.01↓
- ARR5 fold change (BA 0.1 μM, 1 h, OE18, ↓ down): 6.01↓
- ARR5 fold change (BA 0.1 μM, 1 h, Wild type, ↑ up): 5.06↑
- ARR5 fold change (BA 1.0 μM, 5 min, AS1, ↑ up): 6.62↑
- ARR5 fold change (BA 1.0 μM, 5 min, AS8, ↑ up): 8.59↑
- ARR5 fold change (BA 1.0 μM, 5 min, AS21, ↑ up): 9.99↑
- ARR5 fold change (BA 1.0 μM, 5 min, OE1, ↓ down): 3.96↓
- ARR5 fold change (BA 1.0 μM, 5 min, OE12, ↓ down): 3.99↓
- ARR5 fold change (BA 1.0 μM, 5 min, OE18, ↓ down): 5.36↓
- ARR5 fold change (BA 1.0 μM, 5 min, Wild type, ↑ up): 5.21↑
- ARR5 fold change (BA 1.0 μM, 15 min, AS1, ↑ up): 6.88↑
- ARR5 fold change (BA 1.0 μM, 15 min, AS8, ↑ up): 8.93↑
- ARR5 fold change (BA 1.0 μM, 15 min, AS21, ↑ up): 10.12↑
- ARR5 fold change (BA 1.0 μM, 15 min, OE1, ↓ down): 3.71↓
- ARR5 fold change (BA 1.0 μM, 15 min, OE12, ↓ down): 3.46↓
- ARR5 fold change (BA 1.0 μM, 15 min, OE18, ↓ down): 5.21↓
- ARR5 fold change (BA 1.0 μM, 15 min, Wild type, ↑ up): 5.46↑
- ARR5 fold change (BA 1.0 μM, 30 min, AS1, ↑ up): 6.93↑
- ARR5 fold change (BA 1.0 μM, 30 min, AS8, ↑ up): 9.09↑
- ARR5 fold change (BA 1.0 μM, 30 min, AS21, ↑ up): 10.35↑
- ARR5 fold change (BA 1.0 μM, 30 min, OE1, ↓ down): 3.49↓
- ARR5 fold change (BA 1.0 μM, 30 min, OE12, ↓ down): 3.77↓
- ARR5 fold change (BA 1.0 μM, 30 min, OE18, ↓ down): 5.01↓
- ARR5 fold change (BA 1.0 μM, 30 min, Wild type, ↑ up): 5.79↑
- ARR5 fold change (BA 1.0 μM, 1 h, AS1, ↑ up): 7.31↑
- ARR5 fold change (BA 1.0 μM, 1 h, AS8, ↑ up): 9.17↑
- ARR5 fold change (BA 1.0 μM, 1 h, AS21, ↑ up): 10.76↑
- ARR5 fold change (BA 1.0 μM, 1 h, OE1, ↓ down): 3.21↓
- ARR5 fold change (BA 1.0 μM, 1 h, OE12, ↓ down): 3.52↓
- ARR5 fold change (BA 1.0 μM, 1 h, OE18, ↓ down): 4.72↓
- ARR5 fold change (BA 1.0 μM, 1 h, Wild type, ↑ up): 6.07↑
- ARR5 fold change (BA 5.0 μM, 5 min, AS1, ↑ up): 7.01↑
- ARR5 fold change (BA 5.0 μM, 5 min, AS8, ↑ up): 9.56↑
- ARR5 fold change (BA 5.0 μM, 5 min, AS21, ↑ up): 10.43↑
- ARR5 fold change (BA 5.0 μM, 5 min, OE1, ↓ down): 3.19↓
- ARR5 fold change (BA 5.0 μM, 5 min, OE12, ↓ down): 3.59↓
- ARR5 fold change (BA 5.0 μM, 5 min, OE18, ↓ down): 4.25↓
- ARR5 fold change (BA 5.0 μM, 5 min, Wild type, ↑ up): 6.72↑
- ARR5 fold change (BA 5.0 μM, 15 min, AS1, ↑ up): 7.31↑
- ARR5 fold change (BA 5.0 μM, 15 min, Wild type, ↑ up): 6.99↑
- ARR5 fold change (BA 5.0 μM, 1 h, AS1, ↑ up): 7.86↑
- ARR5 fold change (BA 5.0 μM, 1 h, AS8, ↑ up): 10.05↑
- ARR5 fold change (BA 5.0 μM, 1 h, AS21, ↑ up): 10.93↑
- ARR5 fold change (BA 5.0 μM, 1 h, OE1, ↓ down): 2.54↓
- ARR5 fold change (BA 5.0 μM, 1 h, OE12, ↓ down): 2.78↓
- ARR5 fold change (BA 5.0 μM, 1 h, OE18, ↓ down): 3.89↓
- ARR5 fold change (BA 5.0 μM, 1 h, Wild type, ↑ up): 7.24↑
